According to patent publication US12194080B2, “Methods for identification, assessment, prevention, and treatment of metabolic disorders using PM20D1 and N-lipidated amino acids” (Dana-Farber Cancer Institute, Inc., priority 2015, dated 2025):

What was measured:
[1] = test system: primary inguinal fat cells, primary BAT cells, C2C12 cells, and U2OS cells; experiment: Uncoupled respiration cellular assays (variety of cell types); assay type: cell-based; conditions: N-acyl amino acids at 10-100 uM
[2] = test system: differentiated primary iWAT cells; experiment: Cellular oxygen consumption rate (Seahorse XF24), differentiated primary iWAT adipocytes; assay type: cell-based, mouse; conditions: 50 μM, in presence of oligomycin (1 μM)
Procedure: (§1) C2C12, U2O5, and 293A cells were cultured in DMEM with 10% FBS and pen/strep. Primary inguinal (iWAT) and brown (BAT) adipocytes were obtained as follows. The stromal-vascular fraction of inguinal (iWAT) pad from 4-12 week old male mice was dissected, minced, and digested for 45 min. at 37° C. in PBS containing 10 mM CaCl2, 2.4 U/ml dispase II (Roche), and 1.5 U/ml collagenase D (Roche). The stromal-vascular fraction of brown fat (BAT) pads from newborn (P1-P14) pups was dissected, minced, and digested for 45 min at 37° C. in PBS containing 1.3 mM CaCl2, 120 mM NaCl, 5 mM KCl, 5 mM glucose, 100 mM HEPES, 4% BSA, and 1.5 mg/ml collagenase B (Roche). Digested tissue was diluted with adipocyte culture media (DMEM/F-12, GlutaMAX™ supplement, Life Technologies, with 10% FBS and pen/strep) and centrifuged (600×g for 10 min.). The pellet was resuspended in 10 ml adipocyte culture media, strained through a 40 μm filter, and plated. Differentiation was induced by application of an adipogenic cocktail containing 5 μg/ml insulin (Sigma), 5 μM dexamethasone (Sigma), 250 μM isobutylmethylxanthine (Sigma), and 1 μM rosiglitazone (Cayman) for 2 days. Two days after induction, cells were maintained in adipocyte culture media containing 5 μg/ml insulin and 1 μM rosiglitazone.
(§2) Cellular oxygen consumption rates were determined using an XF24 Extracellular Flux Analyzer (Seahorse Biosciences). Oligomycin was purchased from EMD Millipore, and FCCP and rotenone were purchased from Sigma. C2C12 or U2OS cells were seeded at 30,000 or 50,000 cells/well, respectively in an XF24 cell culture microplate (V7-PS, Seahorse Bioscience) and analyzed the following day. Primary iWAT or BAT adipocytes were seeded at 15,000 cells/well, differentiation was induced the following day as described, and the cells were analyzed on day 5. On the day of analysis, the cells were washed once with Seahorse respiration buffer (8.3 g/1 DMEM, 1.8 g/l NaCl, 1 mM pyruvate, 20 mM glucose, pen/strep), placed in 0.5 ml Seahorse respiration buffer, and incubated in a CO2-free incubator for 1 hr. Port injection solutions were prepared as follows (final concentrations in assay in parentheses): 10 μM oligomycin (1 μM final), […] amino acid (50 μM final), 2 μM FCCP (0.2 μM final), and 30 μM rotenone (3 μM final). The Seahorse program was run as follows: basal measurement, 3 cycles; inject port A (oligomycin), 3 cycles; inject port B (compounds), 8 cycles; inject port C (FCCP), 3 cycles; inject port D (rotenone), 3 cycles. Each cycle consisted of mix 4 min, wait 0 min, and measure 2 min. For data expressed as a percentage of oligomycin-treated basal, the respiration at cycle 6 was normalized to 100%, and the maximum respiration at any time point between cycles 7 and 15 inclusive was used.

[3] = test system: primary BAT adipocytes from UCP1-WT mice; experiment: Cellular oxygen consumption rate, primary BAT adipocytes from UCP1-WT mice; assay type: cell-based, mouse; conditions: UCP1-WT cells, 50 μM
Procedure: (§3) C2C12, U2O5, and 293A cells were cultured in DMEM with 10% FBS and pen/strep. Primary inguinal (iWAT) and brown (BAT) adipocytes were obtained as follows. The stromal-vascular fraction of inguinal (iWAT) pad from 4-12 week old male mice was dissected, minced, and digested for 45 min. at 37° C. in PBS containing 10 mM CaCl2, 2.4 U/ml dispase II (Roche), and 1.5 U/ml collagenase D (Roche). The stromal-vascular fraction of brown fat (BAT) pads from newborn (P1-P14) pups was dissected, minced, and digested for 45 min at 37° C. in PBS containing 1.3 mM CaCl2, 120 mM NaCl, 5 mM KCl, 5 mM glucose, 100 mM HEPES, 4% BSA, and 1.5 mg/ml collagenase B (Roche). […]
(§4) Cellular oxygen consumption rates were determined using an XF24 Extracellular Flux Analyzer (Seahorse Biosciences). […] C2C12 or U2OS cells were seeded at 30,000 or 50,000 cells/well, respectively in an XF24 cell culture microplate (V7-PS, Seahorse Bioscience) and analyzed the following day. Primary iWAT or BAT adipocytes were seeded at 15,000 cells/well, differentiation was induced the following day as described, and the cells were analyzed on day 5. […] For data expressed as a percentage of oligomycin-treated basal, the respiration at cycle 6 was normalized to 100%, and the maximum respiration at any time point between cycles 7 and 15 inclusive was used.

[4] = test system: primary BAT adipocytes from UCP1-KO mice; experiment: Cellular oxygen consumption rate, primary BAT adipocytes from UCP1-KO mice; assay type: cell-based, mouse; conditions: UCP1-KO cells, 50 μM
Procedure: as §3, §4

C2C12 cells = experiment: Cellular oxygen consumption rate (uncoupled respiration), C2C12 cells; assay type: cell-based, mouse; conditions: 50 μM, after oligomycin 1 μM
Procedure: as §1, §2

proteins in C2C12 cells = experiment: UV crosslinking with photo-probe and identification of N-acyl amino acid protein targets (TAMRA in-gel fluorescence, LC-MS/MS); assay type: binding, mouse; conditions: photo-probe 50 μM, 20 min, UV irradiation 10 min
Procedure: Confluent 6-cm plates of C2C12 cells were washed twice with PBS and then treated with photo-probe (20 μM) with or without competitor (C20:4-Phe, 100 μM) in serum free media at 37° C. for 20 min. The media was aspirated. Cells were then placed on ice and UV-irradiated (10 min, UV Stratalinker 2400). Control samples were left on ice under ambient light.
Following UV irradiation, cells were then scraped, centrifuged (5 min, 1,400×g), washed once with cold PBS, and centrifuged again (5 min, 1,400×g). The cell pellets were resuspended in 0.3 ml PBS and sonicated. Click chemistry was performed as follows: To 50 μl cell lysate at 1 mg/ml was added 3 μl TBTA (stock solution: 1.7 mM in 4:1 v/v DMSO:t-BuOH), 1 ul CuSO4 (stock solution: 50 mM in water), 1 ul TCEP (freshly prepared, stock solution: 50 mM), and 1 ul TAMRA-N3 (stock solution: 1.25 mM in DMSO). Reactions were incubated at room temperature for 1 h, and then quenched with 4× SDS loading buffer (17 ul). In-gel TAMRA fluorescence was visualized on a Typhoon™ FLA 9000 scanner (GE Healthcare Life Sciences).

human PM20D1 [5] = biological target: T1, human PM20D1 (Homo sapiens, UniProt Q6GTS8); experiment: In vitro N-acyl amino acid hydrolase activity of human PM20D1; assay type: biochemical; conditions: purified human PM20D1-flag, substrate 100 μM
T1 construct: host or cells: 293A cells, transient transfection; purified from conditioned medium
T1 sequence (Q6GTS8 26-502): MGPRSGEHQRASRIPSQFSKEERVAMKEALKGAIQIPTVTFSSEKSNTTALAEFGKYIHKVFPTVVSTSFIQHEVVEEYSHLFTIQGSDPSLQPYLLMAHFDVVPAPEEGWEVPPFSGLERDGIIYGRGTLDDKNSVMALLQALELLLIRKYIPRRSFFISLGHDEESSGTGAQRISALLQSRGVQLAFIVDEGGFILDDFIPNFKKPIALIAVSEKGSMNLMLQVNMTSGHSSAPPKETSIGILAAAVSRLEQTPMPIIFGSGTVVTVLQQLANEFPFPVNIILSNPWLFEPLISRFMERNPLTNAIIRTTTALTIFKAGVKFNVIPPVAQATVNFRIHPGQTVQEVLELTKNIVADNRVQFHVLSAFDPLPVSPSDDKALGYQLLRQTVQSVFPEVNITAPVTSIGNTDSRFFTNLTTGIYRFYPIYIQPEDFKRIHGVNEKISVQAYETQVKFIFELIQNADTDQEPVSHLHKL
Procedure: (§5) The concentrated media was centrifuged to remove debris (600×g, 10 min, 4° C.) and the supernatant containing PM20D1-flag was decanted into a new tube. PM20D1-Flag was immunoaffinity purified overnight at 4° C. from the concentrated media using magnetic Flag-M2 beads (Sigma Aldrich). The beads were collected, washed three times in PBS, eluted with 3× Flag peptide ([…] in PBS, Sigma Aldrich), aliquoted, and stored at −80° C. For the purification of human PM20D1-flag, hPM20D1-flag plasmid (Origene) was transiently transfected into 293A cells. After two days, the media was changed, harvested 24 h later, concentrated, and purified exactly as described above.
(§6) In vitro PM20D1-catalyzed synthesis of N-acyl amino acids was measured by incubating purified PM20D1 protein with oleate (1.5 mM) and phenylalanine (0.1 mM) in PBS (to 100 μl final volume) at 37° C. for 1.5 hrs. In vitro PM20D1-catalyzed N-acyl amino acid hydrolysis was measured by incubating purified PM20D1 protein with the indicated N-acyl amino acid (0.1 mM) in PBS (to 100 μl final volume) at 37° C. for 1.5 hrs. Reactions were terminated by placing the vials at −80° C. and the products generated in vitro were analyzed by mass spectroscopy (MS).
(§7) Briefly, frozen serum (30 μl) for polar metabolomic analyses were extracted in 160 μl of 1:1 acetonitrile/methanol with inclusion of internal standard D3, ^15N-serine (1 nmol). […]

human PM20D1 [6] = biological target: T1, human PM20D1; experiment: In vitro N-acyl amino acid synthase activity of human PM20D1; assay type: biochemical; conditions: purified human PM20D1-flag, oleate 1.5 mM, head group 100 μM
Procedure: as §5, §6, §7

CCCCC/C=C\C/C=C\C/C=C\C/C=C\CCCC(=O)N[C@@H](Cc1ccccc1)C(=O)O [C20:4-Phe, N-arachidonoyl phenylalanine]
uncoupled respiration in cells [1]: increased uncoupled respiration
maximal OCR versus DMSO at the same time point [2]: 214%
maximal OCR versus oligomycin-treated basal respiration [2]: 243%
maximal OCR versus the oligomycin-treated basal respiration [3]: 221%
maximal OCR versus the oligomycin-treated basal respiration [4]: 214%

C#CCCCCCCCCCCCCCCCC(=O)N[C@@H](CC1(C)N=N1)C(=O)O [photo-probe, (S)-3-(3-methyl-3H-diazirin-3-yl)-2-(octadec-17-ynamido)propanoic acid]
uncoupling activity (uncoupled respiration) (C2C12 cells): competent inducer of uncoupled respiration
crosslinking assessed by in-gel TAMRA fluorescence (proteins in C2C12 cells): robust, UV-dependent crosslinking

B1: Human PM20D1: purified, recombinant human PM20D1-flag from transiently transfected 293A cells (protein, UniProt Q6GTS8 26-502, looked up)
N-fatty-acyl-amino acid …: MGPRSGEHQRASRIPSQFSKEERVAMKEALKGAIQIPTVTFSSEKSNTTALAEFGKYIHKVFPTVVSTSFIQHEVVEEYSHLFTIQGSDPSLQPYLLMAHFDVVPAPEEGWEVPPFSGLERDGIIYGRGTLDDKNSVMALLQALELLLIRKYIPRRSFFISLGHDEESSGTGAQRISALLQSRGVQLAFIVDEGGFILDDFIPNFKKPIALIAVSEKGSMNLMLQVNMTSGHSSAPPKETSIGILAAAVSRLEQTPMPIIFGSGTVVTVLQQLANEFPFPVNIILSNPWLFEPLISRFMERNPLTNAIIRTTTALTIFKAGVKFNVIPPVAQATVNFRIHPGQTVQEVLELTKNIVADNRVQFHVLSAFDPLPVSPSDDKALGYQLLRQTVQSVFPEVNITAPVTSIGNTDSRFFTNLTTGIYRFYPIYIQPEDFKRIHGVNEKISVQAYETQVKFIFELIQNADTDQEPVSHLHKL
modifications: FLAG tag
notes: purified, recombinant human PM20D1-flag from transiently transfected 293A cells
N-acyl amino acid hydrolase activity (human PM20D1 [5]): possessed N-acyl amino acid synthase and hydrolase activities
N-acyl amino acid synthase activity (human PM20D1 [6]): possessed N-acyl amino acid synthase and hydrolase activities
